One data set can be described thus: Lipophilicity, logP of compound by shake flask method. It counts as physicochemical. Particulars: octanol/water.
As to `COc1ccc(Cc2nccc3cc(OC)c(OC)cc23)cc1OC` [PAPAVERINE], the logP – broadly, the decadic logarithm of the partition coefficient of the neutral form, usually between octanol and water – is 3.

The next data set can be described thus: Relative lipophilicity of the compound in methanol assessed as retardation factor by reversed-phase TLC analysis. The format is physicochemical.
Conditions: not given
Turning to `COc1nc2c(c(=O)n(C)c(=O)n2C)n1CC(=O)Nc1ccc(C(C)(C)C)cc1`, the Rm amounted to 3.92.
For the compound `COc1nc2c(c(=O)n(C)c(=O)n2C)n1CCCC(=O)Nc1ccc(C(C)(C)C)cc1`, the Rm was determined as 3.82.
Consider `CCCOc1nc2c(c(=O)n(C)c(=O)n2C)n1CCCC(=O)Nc1ccc(C(C)CC)cc1` (configuration not stated), for which the Rm amounted to 4.86.
With `CCCOc1nc2c(c(=O)n(C)c(=O)n2C)n1CCCC(=O)Nc1ccc(C(C)(C)C)cc1`, the Rm is 4.81.
As for `COc1nc2c(c(=O)n(C)c(=O)n2C)n1CC(=O)Nc1ccc(C(C)C)cc1`, the Rm turned out to be 3.28.
On to `CCOc1nc2c(c(=O)n(C)c(=O)n2C)n1CCCC(=O)Nc1ccc(C(C)C)cc1`, for which the Rm was 4.4.
For the compound `CCOc1nc2c(c(=O)n(C)c(=O)n2C)n1CC(=O)Nc1ccc(C(C)(C)C)cc1`, the Rm is on record as 3.99.
As to `CCOc1nc2c(c(=O)n(C)c(=O)n2C)n1CCCC(=O)Nc1ccc(C(C)(C)C)cc1`, the Rm was 3.84.
The same measure, in the same setting: with `CCCOc1nc2c(c(=O)n(C)c(=O)n2C)n1CCCC(=O)Nc1ccc(C(C)C)cc1` the figure was 4.4; with `CCCCOc1nc2c(c(=O)n(C)c(=O)n2C)n1CCCC(=O)Nc1ccc(C(C)CC)cc1` (configuration not stated), 4.7; with `CCOc1nc2c(c(=O)n(C)c(=O)n2C)n1CC(=O)Nc1ccc(C(C)C)cc1`, 3.86.
Regarding `COc1nc2c(c(=O)n(C)c(=O)n2C)n1CCCC(=O)Nc1ccc(C(C)C)cc1`, the Rm was 3.8.
The same measure, in the same setting: with `CCCCOc1nc2c(c(=O)n(C)c(=O)n2C)n1CCCC(=O)Nc1cc(C(C)CC)ccc1O` (configuration not stated) the figure was 4.87.
As for `CCCOc1nc2c(c(=O)n(C)c(=O)n2C)n1CCCC(=O)Nc1cc(C(C)CC)ccc1O` (configuration not stated), the Rm was found to be 4.52.
Same read-out and setting: the same measure for `CC(=O)Nc1ccc(O)cc1` [ACETAMINOPHEN]: 0.31; for `CCC1(CC)C(=O)NC(=O)NC1=O` [BARBITAL]: 0.8.
For the compound `CCOC(=O)c1ccc(N)cc1` [BENZOCAINE], the Rm was found to be 1.92.
As to `O=C(CCCN1CCC(O)(c2ccc(Cl)cc2)CC1)c1ccc(F)cc1` [HALOPERIDOL], the Rm was 3.61.
With `CCN(CC)CC(=O)Nc1c(C)cccc1C` [LIDOCAINE], the Rm amounted to 1.31.
In the case of `COc1ccc(Cc2nccc3cc(OC)c(OC)cc23)cc1OC` [PAPAVERINE], the Rm stood at 2.79.
Same read-out and setting: with `CCC1(c2ccccc2)C(=O)NC(=O)NC1=O` [PHENOBARBITAL] the figure was 1.9; with `O=C1NC(=O)C(c2ccccc2)(c2ccccc2)N1` [PHENYTOIN], 2.43; with `C[C@]12C=CC(=O)C=C1CC[C@@H]1[C@@H]2[C@@H](O)C[C@@]2(C)[C@H]1CC[C@]2(O)C(=O)CO` [PREDNISOLONE], 2.49.
The same measure, in the same setting: the same measure for `Cn1cnc2c1c(=O)[nH]c(=O)n2C` [THEOBROMINE]: 0.26.
Take `Cn1c(=O)c2[nH]cnc2n(C)c1=O.O` [THEOPHYLLINE]: the Rm is 0.61.
For `O=c1n(CCCN2CCN(c3cccc(Cl)c3)CC2)nc2ccccn12` [TRAZODONE], the Rm worked out at 2.65.

(Values after ChEMBL document CHEMBL4825735, “Estimation of the lipophilicity of purine-2,6-dione-based TRPA1 antagonists and PDE4/7 inhibitors with analgesic activity” (Bioorg Med Chem Lett, 2021).)
